Data set [1] can be described thus: Neurotoxicity against rat PC-12 cells assessed as reduction in cell viability at 10 uM measured after 24 hrs by MTT assay. The format is toxicity, cell-based. Conditions: pc-12, 24 h. In general terms: Tetrazolium assays rely on reduction of a dye to a coloured formazan, in cell work by metabolically active cells.
A short description of data set [2]: Neurotoxicity against human SH-SY5Y cells assessed as reduction in cell viability at 10 uM measured after 24 hrs by MTT assay. The format is toxicity, cell-based.
Data set [3] can be described thus: Antioxidant activity assessed as ABTS radical scavenging activity measured after 30 mins by absorbance based analysis. Format: functional.
A short description of data set [4]: Antioxidant activity assessed as DPPH scavenging activity incubated for 0.5 hrs by absorbance based assay. The format is functional. A general note: Loss of DPPH colour is used to gauge radical scavenging.
A further data set has as its target Histone deacetylase 1 (Homo sapiens, UniProt Q13547). The data set is described as follows: Inhibition of HDAC1 (unknown origin).
Data set [5] concerns PC-12. The experiment in a line: Neuroprotective activity against H2O2-induced oxidative damage in rat PC-12 cells assessed as increase in cell survival at 10 uM pretreated for 4 hrs followed by 800 uM H2O2 stimulation and measured after 24 hrs by MTT assay. As to conditions: time 28.0 hrs. The format is functional, cell-based.
Data set [6] deals with SH-SY5Y. The data set is described as follows: Neuroprotective activity against H2O2-induced oxidative damage in human SH-SY5Y cells assessed as increase in cell survival at 10 uM pretreated for 4 hrs followed by 200 uM H2O2 stimulation and measured after 24 hrs by MTT assay. The format is functional, cell-based. As to conditions: time 28.0 hrs.
Data set [7] concerns PC-12. The experiment in a line: Neuroprotective activity against H2O2-induced oxidative damage in rat PC-12 cells assessed as increase in catalase protein expression at 10 uM pretreated for 4 hrs followed by H2O2 stimulation and measured after 24 hrs by Western blot analysis. As to conditions: time 28.0 hrs. The format is functional, cell-based. On the technique in general: In western blotting, separated proteins are transferred to a membrane and probed.

The test system of data set [8] is PC-12. The data set is described as follows: Neuroprotective activity against 6-OHDA-induced oxidative damage in rat PC-12 cells assessed as increase in cell survival at 1 to 10 uM pretreated for 4 hrs followed by 500 uM 6-OHDA stimulation and measured after 24 hrs by MTT assay. Format: functional, cell-based. Conditions: dose 1-10 µM, time 28.0 hrs.
The test system of data set [9] is PC-12. The experiment in a line: Neuroprotective activity against H2O2-induced oxidative damage in rat PC-12 cells assessed as SOD activity at 10 uM pretreated for 4 hrs followed by H2O2 stimulation and measured after 24 hrs by WST-8 assay. The format is functional. As to conditions: time 28 hrs.
Data set [10] concerns PC-12. The data set is described as follows: Neuroprotective activity against H2O2-induced oxidative damage in rat PC-12 cells assessed as increase in cell survival pretreated for 4 hrs followed by 800 uM H2O2 stimulation and measured after 24 hrs by MTT assay. Format: functional, cell-based. Conditions: dose 1-10 µM, time 28.0 hrs.
The subject of data set [11] is SH-SY5Y. The experiment in a line: Neuroprotective activity against 6-OHDA-induced oxidative damage in human SH-SY5Y cells assessed as increase in cell survival at 1 to 10 uM pretreated for 4 hrs followed by 100 uM 6-OHDA stimulation and measured after 24 hrs by MTT assay. As to conditions: dose 1-10 µM, time 28.0 hrs. The format is functional, cell-based.
The test system of data set [12] is SH-SY5Y. The experiment in a line: Neuroprotective activity against H2O2-induced oxidative damage in human SH-SY5Y cells assessed as increase in cell survival pretreated for 4 hrs followed by 200 uM H2O2 stimulation and measured after 24 hrs by MTT assay. The format is functional, cell-based. As to conditions: dose 1-10 µM, time 28.0 hrs.
For data set [13], the system named is PC-12. The experiment in a line: Neuroprotective activity against H2O2-induced oxidative damage in rat PC-12 cells assessed as increase in Nrf2 protein expression at 10 uM pretreated for 4 hrs followed by H2O2 stimulation and measured after 24 hrs by Western blot analysis. The format is functional, cell-based. As to conditions: time 28.0 hrs.
The nature of data set [14]: Neurotoxicity against rat PC-12 cells assessed as cell survival rate at 10 uM measured after 24 hrs by MTT assay relative to control. Conditions: read-out: Survival. The format is toxicity, cell-based.
Data set [15] is described as follows: Neurotoxicity against human SH-SY5Y cells assessed as cell survival rate at 10 uM measured after 24 hrs by MTT assay relative to control. Format: toxicity, cell-based. Conditions: read-out: Survival.
For data set [16], the target named is T1, Protein deacetylase HDAC6 (Homo sapiens, UniProt Q9UBN7).
T1 sequence (Q9UBN7 whole entry): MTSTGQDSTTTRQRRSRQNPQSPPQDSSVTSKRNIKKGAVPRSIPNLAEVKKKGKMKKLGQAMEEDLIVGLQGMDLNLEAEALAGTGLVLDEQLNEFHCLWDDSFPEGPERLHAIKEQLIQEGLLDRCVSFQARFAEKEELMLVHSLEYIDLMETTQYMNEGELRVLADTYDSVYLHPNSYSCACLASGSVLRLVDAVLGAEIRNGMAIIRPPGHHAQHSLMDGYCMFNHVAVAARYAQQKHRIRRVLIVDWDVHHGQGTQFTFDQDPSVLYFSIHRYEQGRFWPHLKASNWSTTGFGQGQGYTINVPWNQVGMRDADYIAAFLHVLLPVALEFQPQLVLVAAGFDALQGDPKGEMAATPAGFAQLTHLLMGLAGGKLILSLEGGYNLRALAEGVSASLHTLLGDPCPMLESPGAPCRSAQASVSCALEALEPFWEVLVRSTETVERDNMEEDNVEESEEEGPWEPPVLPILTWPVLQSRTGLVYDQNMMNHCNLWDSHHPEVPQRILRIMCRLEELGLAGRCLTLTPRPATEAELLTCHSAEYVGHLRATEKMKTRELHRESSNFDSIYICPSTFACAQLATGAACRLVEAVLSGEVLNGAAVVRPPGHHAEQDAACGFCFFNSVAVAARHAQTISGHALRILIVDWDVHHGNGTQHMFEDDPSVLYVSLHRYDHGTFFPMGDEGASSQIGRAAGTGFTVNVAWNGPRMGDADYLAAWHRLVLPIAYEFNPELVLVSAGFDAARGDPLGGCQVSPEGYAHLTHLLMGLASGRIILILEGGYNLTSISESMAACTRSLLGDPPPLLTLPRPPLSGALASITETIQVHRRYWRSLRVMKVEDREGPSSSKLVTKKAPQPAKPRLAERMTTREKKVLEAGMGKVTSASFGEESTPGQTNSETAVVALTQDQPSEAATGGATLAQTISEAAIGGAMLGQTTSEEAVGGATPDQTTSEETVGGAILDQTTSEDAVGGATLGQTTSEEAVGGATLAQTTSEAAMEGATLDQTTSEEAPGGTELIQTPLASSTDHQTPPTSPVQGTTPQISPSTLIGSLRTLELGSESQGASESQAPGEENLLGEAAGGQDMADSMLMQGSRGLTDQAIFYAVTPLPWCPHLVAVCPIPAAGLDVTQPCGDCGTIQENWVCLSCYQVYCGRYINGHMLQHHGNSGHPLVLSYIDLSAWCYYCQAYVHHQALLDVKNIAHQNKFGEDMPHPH
The experiment in a line: Inhibition of HDAC6 (unknown origin).

The next data set is filed under the species Danio rerio. The experiment in a line: Cognitive improvement ability in scopolamine induced zebrafish alzheimer disease model assessed as improvement in motor activity by measuring increase in total distance of swimming at 20 mg/L pretreated with scopolamine for 30 mins followed by compound addition for 3 mins by T-maze test. The format is functional, organism-based.

The results in this text go back to ChEMBL document CHEMBL5579843, “Multimechanism biological profiling of tetrahydro-β-carboline analogues as selective HDAC6 inhibitors for the treatment of Alzheimer's disease” (Eur J Med Chem, 2024).

The source made the active and inactive calls. The calls are words filed in the database; no cut-off is given here.

Sequence of Histone deacetylase 1 (Q13547 whole entry): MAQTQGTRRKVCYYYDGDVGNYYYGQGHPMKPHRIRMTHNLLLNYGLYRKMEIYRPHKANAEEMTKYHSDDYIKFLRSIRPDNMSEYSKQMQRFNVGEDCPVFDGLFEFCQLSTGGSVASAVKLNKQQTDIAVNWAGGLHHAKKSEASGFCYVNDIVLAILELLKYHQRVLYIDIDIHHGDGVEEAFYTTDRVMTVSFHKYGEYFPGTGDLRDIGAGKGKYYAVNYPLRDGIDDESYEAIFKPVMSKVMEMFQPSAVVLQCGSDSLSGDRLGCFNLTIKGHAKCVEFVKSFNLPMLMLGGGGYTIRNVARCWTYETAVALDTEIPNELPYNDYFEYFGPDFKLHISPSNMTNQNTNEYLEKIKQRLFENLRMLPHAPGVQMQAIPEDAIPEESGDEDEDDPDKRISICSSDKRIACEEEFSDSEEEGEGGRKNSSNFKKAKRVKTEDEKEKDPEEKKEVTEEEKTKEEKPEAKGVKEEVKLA

As to `O=C(/C=C/c1ccc(CN2CCc3[nH]c4ccccc4c3C2)cc1)NO`, the Activity entry in data set [1] and in data set [2] was “Toxic” each time.
With `O=C(NO)c1cccc(CN2CCc3[nH]c4ccccc4c3C2)c1`, the figures for the concentration for half-maximal inhibition (IC50) in data set [3] and in data set [4] were 16.9 µM and 24.3 µM, respectively.
With `O=C(NO)c1ccc(CNC(=O)[C@@H]2Cc3c([nH]c4ccccc34)[C@@H](c3ccc(Cl)cc3)N2CC2CC2)cc1`, 0.494 µM corresponded to half-maximal inhibition against Histone deacetylase 1 (IC50).
For `O=C(CCCCCC(=O)N1CCc2c([nH]c3ccccc23)C1)NO`, the half-inhibitory concentration (IC50) in [3] is 14.4 µM; in data set [4], 28.4 µM. Further, the outcome in the data set on PC-12 [5] and in the data set on SH-SY5Y [6] was inactive.
Take `Cc1ccc2[nH]c3c(c2c1)CN(Cc1ccc(C(=O)NO)cc1)CC3`: the 50% inhibitory concentration (IC50) in [3] is 9.97 µM; in [4], 28.2 µM.
As to `O=C(NO)c1ccc(CC(=O)N2CCc3c([nH]c4ccccc34)C2)cc1`, the IC50 in [3] amounted to 13.8 µM; in data set [4], 30.3 µM. In addition, the result in the data set with PC-12 [5] and with SH-SY5Y [6] was inactive.
On to `CN1CCc2c(c3ccccc3n2Cc2ccc(C(=O)NO)cc2)C1` [TUBASTATIN A], for which the result with PC-12 [7], in the data set with PC-12 [8], in the data set on SH-SY5Y [11] and with PC-12 [13] was Active. The figures for the concentration for half-maximal inhibition (IC50) in data set [3] and in data set [4] were 12.1 µM and 28.2 µM, respectively. Besides, the Activity in the data set on PC-12 [9] was 13.7 U/mg; with PC-12 [10], “Dose-Dependent Effect”; in the data set with SH-SY5Y [12], “Dose-Dependent Effect”.
With `O=C(NO)c1ccc(CN2CCc3[nH]c4ccccc4c3C2)cc1`, the half-maximal inhibitory concentration (IC50) in data set [3] turned out to be 17.2 µM; in [4], 26.5 µM.
As for `O=C(CCCCCCC(=O)Nc1ccccc1)NO` [VORINOSTAT], the viability at 24 h, 10 µM in data set [14] and in data set [15] was below 80% throughout.
The molecule `O=C(NO)c1ccc(C2NCCc3c2[nH]c2ccccc32)cc1` (centres undefined) showed an IC50 in [16] above 1 µM.
As to `COc1ccc2[nH]c3c(c2c1)CCN(Cc1ccc(/C=C/C(=O)NO)cc1)C3`, the results for the 50% inhibitory concentration (IC50) (on Histone deacetylase 1; in [16]) were 0.0108 µM and 0.0197 µM, respectively. For the same molecule, the Activity result in data set [1] and in [2] was “Toxic” each time.
Take `COc1ccc2[nH]c3c(c2c1)CCN(Cc1ccc(C(=O)NO)cc1)C3`: the half-inhibitory concentration (IC50) is 12.6 µM in data set [3], 29.1 µM in data set [4], 23.7 µM on Histone deacetylase 1 and 0.0164 µM in data set [16].
Consider `COc1ccc2c3c1O[C@H]1C[C@@H](O)C=C[C@@]31CCN(C)C2`, for which the result in the data set listed under Danio rerio was Active.
With `O=C(NO)c1ccc(CN2CCc3c([nH]c4ccccc34)C2)cc1`, the IC50 was 11.4 µM in data set [3], 35.6 µM in data set [4], 16.5 µM against Histone deacetylase 1 and 0.0138 µM in data set [16].
Take `O=C(CCCCCCC(=O)N1CCc2c([nH]c3ccccc23)C1)NO`: the Activity entry in data set [1] and in data set [2] was “Toxic” each time.
As for `O=C1O[C@H]([C@@H](O)CO)C(O)=C1O` [ASCORBIC ACID], the values for the half-maximal inhibitory concentration (IC50) in data set [3] and in data set [4] were 25.5 µM and 23.8 µM, respectively.
The molecule `O=C(NO)c1ccc(C2c3[nH]c4ccccc4c3CCN2Cc2ccccc2)cc1` (centres undefined) gave an IC50 in data set [16] above 1 µM.
Turning to `O=C(NO)c1ccc(CN2CCc3[nH]c4ccc(F)cc4c3C2)cc1`, the half-inhibitory concentration (IC50) in [3] was 9.96 µM; in data set [4] it was 21 µM.

A word on the IC50: it is the concentration needed to halve the response being measured.
